Here are results for four compounds from EP4755885A1 (Shanghai Hansoh Biomedical Co., Ltd., priority 2023, dated 2025).

Read-outs that look alike come from different tables or passages of the source.

A short description of series [1]: Pharmacokinetic evaluation in beagles, oral administration. The following applies: dog, po, p.o. 2 mg/kg, plasma; for Cmax: read-out: Cmax; for MRT inf: read-out: MRT 0-∞; for Tmax: read-out: tmax. It is filed as in vivo. The essentials:
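Male beagles (3) fasted overnight received 2 mg/kg orally as a 0.4 mg/mL solution in 10% PEG400/10% PG/80% glycine buffer, pH 9.0-9.5. Plasma (EDTA-K2) sampled predose and 0.25-24 h; acetonitrile precipitation, then LC/MS/MS quantification.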

For series [2], the target named is T1, human GLP-1 receptor (Homo sapiens, UniProt P43220).
T1 construct: expressed in transfected cells
The experiment in a line: cAMP production in cell line stably transformed with human GLP1 receptor, 2 h co-incubation (HTRF). Format: cell-based. Particulars: CHO-K1/GLP-1R/CRE-luc cells, stimulation for 2 h. The essentials: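 CHO-K1/GLP-1R/CRE-luc cells (human GLP-1R) incubated 2 h at 37 °C with compound (12-point 3-fold series) and 0.5 mM IBMX in DMEM/F12 with 0.1% casein. cAMP measured by HTRF (665/620 nm ratio); EC50 from four-parameter fit.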
(Changes in cAMP serve as a functional read-out for many G protein-coupled receptors.)

Series [3] in a line: Long-term administration, body weight and food intake of mice fed with CDAHFD high-fat diet. Format: in vivo, GLP-1R humanized C57BL/6 mice. The source says:
The purpose of this assay was to evaluate the effects of long-term administration of the compound on the body weight and food intake of GLP-1R humanized C57BL/6 mice fed with CDAHFD high-fat diet.
C57BL/6_hGLP-1R, male, 5-8 weeks, purchased from Biocytogen Pharmaceuticals (Beijing) Co., Ltd. • Choline-deficient, L-amino acid-defined, high-fat diet (CDAHFD), purchased from Shanghai Bopai Biotechnology Co., Ltd. (Research diet-A06071302) • Ultra-clean bench (CJ-2F, Suzhou Fengshi Experimental Animal Equipment Co., Ltd. • Electronic balance (BSA2202S-CW, Sartorius)
• 3.1 On the day of starting feeding the high-fat diet, the C57BL/6 mice were randomly grouped according to body weight. The first group was Blank, with 7 mice, and was fed with normal control diet. The remaining animals were the modeling group, and were fed with the high-fat diet until the end of the experiment. • 3.2 In week 4 of CDAHFD feeding, the animals in the modeling group were randomly grouped according to body weight, with 7 mice in each group. The first group was Vehicle group (Vehicle: 10%PEG400/10%PG/80% glycine buffer (100 mM glycine, 26 mM NaOH, pH 9) buffer), and was administered solvent; the remaining group was administration group. Administration regime: the corresponding compound was orally administered for a period of 21 days, once each day, the administration dose being 0.3 mg/kg, 1 mg/kg, 3 mg/kg, and 10 mg/kg, and the administration volume being 10 mL/kg. The Blank group continued to be fed with the normal diet, and was orally administered solvent once each day. • 3.3 The day of administration was defined as Day 0. • 3.4 The animals were weighed at each administration and the data were recorded. Oral administration was performed according to body weight, and the administration volume was 10 mL/kg. • 3.5 Starting from day 0 of the experiment, the food intake of the mice in each group was measured every three days. Specifically, after each weighing and administration, the diet was renewed, and the added amount and remaining amount were recorded. • 3.6 On Day 21, the end day, all mice were euthanized sequentially according to grouping order. Plasma and tissues (liver, kidney, ileum, pancreas, and brain) were taken for PK determination, and serum was taken for blood biochemistry determination (ALT, AST, TG, TC, and LDL-C).
The body weight and body weight change rate of the mice after administration were summarized and statistically analyzed. The body weight change rate was calculated according to (BWt - BW0) / BW0 × 100%, where BWt represents mouse body weight on day t of the experiment, and BW0 represents mouse body weight on day 0 of the experiment.

Setting [4] is: 3 mg/kg orally once each day for 21 days.

T1 sequence (P43220 24-463): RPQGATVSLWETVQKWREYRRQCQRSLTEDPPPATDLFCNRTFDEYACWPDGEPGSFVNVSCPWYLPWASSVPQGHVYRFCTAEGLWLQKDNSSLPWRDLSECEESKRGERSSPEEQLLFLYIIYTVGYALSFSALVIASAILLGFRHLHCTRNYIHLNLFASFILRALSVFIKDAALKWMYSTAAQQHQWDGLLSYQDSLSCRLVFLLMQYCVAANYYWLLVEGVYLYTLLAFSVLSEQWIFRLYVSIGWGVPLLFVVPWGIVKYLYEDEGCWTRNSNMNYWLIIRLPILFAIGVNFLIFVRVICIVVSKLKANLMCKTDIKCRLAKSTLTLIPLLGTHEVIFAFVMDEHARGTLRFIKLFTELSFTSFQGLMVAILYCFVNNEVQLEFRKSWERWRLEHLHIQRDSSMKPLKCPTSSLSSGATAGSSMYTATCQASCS

Usually AUC(0-inf) stands for the area under the concentration-time curve extrapolated to infinity. Low readings indicate less exposure, high ones more exposure. By AUC(0-t) is commonly meant the area under the concentration-time curve up to a stated or last time point. One may read the half-life as the time in which the quantity being followed falls by half. What is called Cmax is the peak of the concentration-time curve. The Tmax is the time from dosing to the highest level. By EC50 is commonly meant the concentration needed to bring the measured effect to its halfway point. With `Cc1cc(-n2nc3c(c2-n2ccn(-c4ccc5c(cnn5C5CC5)c4F)c2=O)[C@H](C)N(C(=O)c2cc4cc([C@H]5CCOC(C)(C)C5)ccc4n2[C@@]2(c4noc(=O)[nH]4)C[C@@H]2COC2CC2)CC3)cc(C)c1F` [Example 67], in series [1], the AUC(0-inf) is 11.8 µg·h/mL, the AUC(0-t) at 24 h turned out to be 11.5 µg·h/mL, the half-life was 4.2 h and the Cmax worked out at 2.11 µg/mL. In series [1], the MRT inf came out at 5.7 h and the Tmax was 1.5 h. Also, in series [2], the 50% effective concentration (EC50) was 0.024 nM. In addition, the “Body weight change (%)-” value in series [3] (setting [4]) was -20.34%.

Regarding `C#C[C@H]1C[C@]1(c1noc(=O)[nH]1)n1c(C(=O)N2CCc3nn(-c4cc(C)c(F)c(C)c4)c(-n4ccn(-c5ccc6c(cnn6C6CC6)c5F)c4=O)c3[C@@H]2C)cc2cc([C@H]3CCOC(C)(C)C3)ccc21` [Example 143], in series [1] (male, beagle), the AUC(0-inf) amounted to 17.8 µg·h/mL, the half-life is 3.3 h, the maximum concentration (Cmax) is 2.04 µg/mL and the MRT inf came out at 4.8 h. In addition, the Tmax in series [1] (male, beagle) was 2.7 h. For the same compound, the exposure AUC(0-t) in series [1] (male, beagle, read-out: AUC 0-t) worked out at 13.8 µg·h/mL. Besides, in series [2] (read-out: EC50), the EC50 is 0.013 nM. Besides, the “Body weight change (%)-” value in series [3] (setting [4]) is recorded as -19.43%.

For `CC#C[C@H]1C[C@]1(c1noc(=O)[nH]1)n1c(C(=O)N2CCc3nn(-c4cc(C)c(F)c(C)c4)c(-n4ccn(-c5ccc6c(cnn6C6CC6)c5F)c4=O)c3[C@@H]2C)cc2cc([C@H]3CCOC(C)(C)C3)ccc21` [Example 144, 3-((1S,2R)-1-(2-((S)-3-(3-(1-cyclopropyl-4-fluoro-1H-indazole-5-yl)-2-carbonyl-2,3-dihydro-1H-imidazole-1-yl)-2-(4-fluoro-3,5-dimethylphenyl)-4-methyl-4,5,6,7-tetrahydro-2H-pyrazolo[4,3-c]pyridin-5-carbonyl)-5-((S)-2,2-dimethyltetrahydro-2H-pyrano-4-yl)-1H-indole-1-yl)-2-(propyl-1-alkynyl-1-yl)cyclopropyl)-1,2,4-oxadiazol-5(4H)-one], in series [1], the AUC(0-inf) was 16.6 µg·h/mL, the AUC(0-t) at 24 h stood at 15.9 µg·h/mL, the half-life is 5.8 h and the Cmax is 2.47 µg/mL. In series [1], the MRT inf came out at 6.5 h and the time of peak concentration (Tmax) came to 1.7 h. Further, in series [2] (read-out: EC50), the EC50 stood at 0.05 nM. Besides, the “Body weight change (%)-” value in series [3] (0.3mg/kg orally once each day for 21 days) is -10.40%. For the same compound, the “Body weight change (%)-” value in series [3] (1 mg/kg orally once each day for 21 days) is -14.70%.

On to `[2H]C([2H])([2H])n1nc2c3c(c(-n4ccn(-c5c6c(nn5-c5cc(C)c(F)c(C)c5)CCN(C(=O)c5cc7cc([C@H]8CCOC(C)(C)C8)ccc7n5[C@@]5(c7noc(=O)[nH]7)C[C@@H]5C)[C@H]6C)c4=O)ccc31)OCCC2` [Example 282, 3-((1S,2S)-1-(5-((S)-2,2-dimethyltetrahydro-2H-pyran-4-yl)-2-((S)-2-(4-fluoro-3,5-dimethylphenyl)-4-methyl-3-(3-(2-(methyl-d3)-2,7,8,9-tetrahydrooxaheptano[4,3,2-cd]indazol-5-yl)-2-carbonyl-2,3-dihydro-1H-imidazol-1-yl)-4,5,6,7-tetrahydro-2H-pyrazolo[4,3-c]pyridine-5-carbonyl)-1H-indol-1-yl)-2-methylcyclopropyl)-1,2,4-oxadiazol-5(4H)-one], for which, in series [1], the AUC(0-inf) was 10.8 µg·h/mL, the AUC(0-t) at 24 h was determined as 9.13 µg·h/mL, the half-life is 8.5 h and the maximum concentration (Cmax) was determined as 0.858 µg/mL. Also, in series [1], the MRT inf came out at 12.1 h and the Tmax is 2 h. Besides, in series [2] (read-out: EC50), the EC50 amounted to 0.074 nM.
